Assays:
Type in all cases: cell-based, human
GPR4 mRNA [1] = assay: RT-PCR of GPR4 mRNA in HBMEC; details: within 2 hours, TNF-α 100 U/ml or H2O2
GPR4 mRNA [2] = assay: RT-PCR of GPR4 mRNA in HMEC; details: within 2 hours, TNF-α 100 U/ml or H2O2
[3] = system: monocyte transmigration across HBMEC; assay: Monocyte transmigration assay across HBMEC

Row | Molecule | GPR4 mRNA over control (GPR4 mRNA [1]) | GPR4 mRNA over control (GPR4 mRNA [2]) | effect on basal monocyte transmigration [3] | inhibition of LPC-induced monocyte transmigration [3]
1 | OO [H2O2] | increased GPR4 mRNA over control | not HMEC | – | –
2 | C3 transferase | – | – | did not change basal monocyte transmigration | about 65%
3 | TNF-α | increased GPR4 mRNA over control | not HMEC | – | –
